The structures appear in SMILES notation. Read-outs that look alike come from different tables or passages of the source.

Data set [1] addresses T1, hmGlu1 (Homo sapiens, UniProt Q13255). Nature of the data set: Calcium mobilization mGlu1 PAM assay. The format is cell-based. To be noted: for mGlu1 agonism / PAM profile: agonism at concentrations above 10 µM; for Fold selective versus mGlu4: mGlu4 EC50 / mGlu1 EC50.
The next data set has as its target mGlu5 (Homo sapiens, UniProt P41594). Nature of the data set: Activity at mGlu5. The format is cell-based.
The nature of data set [2]: In vitro predicted hepatic clearance, human hepatic microsomes. The format is in vitro ADME.
Data set [3] in a line: In vitro predicted hepatic clearance, rat hepatic microsomes. It is filed as in vitro ADME.
Data set [4] in a line: Rat brain homogenate binding. The format is in vitro ADME.
For data set [5], the target named is T1, hmGlu1. To be noted: cited from earlier work.
For data set [6] the following is noted: human; cited from earlier work.
For data set [7] the following is noted: rat; cited from earlier work.
The conditions of data set [8]: cited from earlier work.

T1 sequence (Q13255 19-1194): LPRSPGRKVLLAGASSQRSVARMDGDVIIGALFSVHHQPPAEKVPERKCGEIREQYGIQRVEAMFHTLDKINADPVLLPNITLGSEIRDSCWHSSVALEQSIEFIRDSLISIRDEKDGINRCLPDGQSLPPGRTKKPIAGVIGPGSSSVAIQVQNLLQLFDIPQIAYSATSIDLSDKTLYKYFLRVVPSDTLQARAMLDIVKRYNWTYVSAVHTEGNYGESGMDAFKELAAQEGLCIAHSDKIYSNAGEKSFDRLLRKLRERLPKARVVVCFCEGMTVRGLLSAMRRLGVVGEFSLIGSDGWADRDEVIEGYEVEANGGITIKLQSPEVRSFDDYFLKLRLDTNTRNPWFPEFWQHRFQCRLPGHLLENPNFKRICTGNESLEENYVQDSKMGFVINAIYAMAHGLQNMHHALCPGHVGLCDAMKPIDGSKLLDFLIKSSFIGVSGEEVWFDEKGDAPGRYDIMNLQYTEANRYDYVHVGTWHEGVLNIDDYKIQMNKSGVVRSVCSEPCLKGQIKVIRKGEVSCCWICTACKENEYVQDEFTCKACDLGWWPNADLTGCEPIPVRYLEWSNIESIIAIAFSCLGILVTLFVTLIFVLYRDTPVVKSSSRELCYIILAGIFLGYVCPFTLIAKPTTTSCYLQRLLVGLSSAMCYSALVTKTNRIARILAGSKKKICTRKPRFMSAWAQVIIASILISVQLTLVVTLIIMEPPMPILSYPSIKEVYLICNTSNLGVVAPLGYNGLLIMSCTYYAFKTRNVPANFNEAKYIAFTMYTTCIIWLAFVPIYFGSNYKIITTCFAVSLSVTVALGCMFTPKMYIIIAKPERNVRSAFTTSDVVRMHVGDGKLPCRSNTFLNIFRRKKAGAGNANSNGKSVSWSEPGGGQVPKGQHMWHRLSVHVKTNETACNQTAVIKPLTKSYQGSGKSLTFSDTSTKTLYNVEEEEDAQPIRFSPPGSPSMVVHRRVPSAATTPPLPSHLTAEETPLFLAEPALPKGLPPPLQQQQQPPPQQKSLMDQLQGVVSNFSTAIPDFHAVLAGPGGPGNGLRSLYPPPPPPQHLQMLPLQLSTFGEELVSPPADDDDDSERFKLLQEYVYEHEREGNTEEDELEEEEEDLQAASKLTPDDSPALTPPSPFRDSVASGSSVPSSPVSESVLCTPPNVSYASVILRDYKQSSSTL
Sequence of mGlu5 (P41594 21-1212): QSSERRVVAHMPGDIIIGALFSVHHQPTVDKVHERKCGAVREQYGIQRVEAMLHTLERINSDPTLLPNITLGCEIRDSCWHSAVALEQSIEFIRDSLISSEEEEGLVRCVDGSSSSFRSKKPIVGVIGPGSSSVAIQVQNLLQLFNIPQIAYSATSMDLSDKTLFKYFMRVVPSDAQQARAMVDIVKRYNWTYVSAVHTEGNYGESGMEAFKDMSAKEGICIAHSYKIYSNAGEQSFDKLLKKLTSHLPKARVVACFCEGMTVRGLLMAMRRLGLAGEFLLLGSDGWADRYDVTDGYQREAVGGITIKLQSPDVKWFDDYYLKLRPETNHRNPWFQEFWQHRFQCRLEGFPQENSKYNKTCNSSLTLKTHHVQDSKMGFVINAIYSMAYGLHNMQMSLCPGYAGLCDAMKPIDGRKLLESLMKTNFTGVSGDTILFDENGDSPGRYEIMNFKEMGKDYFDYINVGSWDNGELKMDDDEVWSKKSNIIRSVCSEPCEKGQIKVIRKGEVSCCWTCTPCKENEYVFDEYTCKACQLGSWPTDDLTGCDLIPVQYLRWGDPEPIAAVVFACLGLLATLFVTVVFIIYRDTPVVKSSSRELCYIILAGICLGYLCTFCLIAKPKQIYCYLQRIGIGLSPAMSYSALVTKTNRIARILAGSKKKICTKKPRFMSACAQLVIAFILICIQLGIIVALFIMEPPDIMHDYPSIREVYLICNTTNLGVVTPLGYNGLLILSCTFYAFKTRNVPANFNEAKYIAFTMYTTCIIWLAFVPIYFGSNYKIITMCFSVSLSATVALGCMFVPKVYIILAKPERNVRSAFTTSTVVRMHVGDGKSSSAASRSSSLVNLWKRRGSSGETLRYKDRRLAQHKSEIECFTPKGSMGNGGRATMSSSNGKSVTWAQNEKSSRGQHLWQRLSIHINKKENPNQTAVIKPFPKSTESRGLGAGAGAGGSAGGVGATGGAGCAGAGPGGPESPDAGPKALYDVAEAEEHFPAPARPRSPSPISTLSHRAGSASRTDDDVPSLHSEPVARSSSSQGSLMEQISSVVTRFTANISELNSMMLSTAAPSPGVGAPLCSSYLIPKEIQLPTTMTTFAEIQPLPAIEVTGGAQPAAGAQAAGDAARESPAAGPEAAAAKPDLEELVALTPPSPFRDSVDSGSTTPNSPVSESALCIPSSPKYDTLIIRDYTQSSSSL

For `Cc1ccoc1C(=O)Nc1cnc(N2C(=O)c3ccccc3C2=O)nc1` [11e], the “mGlu1 versus mGlu4 PAM potency” value on hmGlu1 [1] is recorded as “equipotent”.

On to `Cc1ccoc1C(=O)Nc1ccc(N2C(=O)c3ccccc3C2=O)cc1F` [12a], for which, at hmGlu1 [1], the “mGlu1 agonism / PAM profile” value is “did not show any observable agonistic effect” and the “Fold selective versus mGlu4” value is listed as above 793 fold. For the same compound, on mGlu5, the “activity at mGlu5” value is “no activity”. In addition, the “predicted hepatic clearance CLHEP” value in data set [2] is 9.65 mL/min/kg. For the same compound, in data set [3], the “predicted hepatic clearance CLHEP” value is listed as 48.5 mL/min/kg. The same compound registered a fraction unbound in [4] below 0.01.

Turning to `COc1cc(N2C(=O)c3ccccc3C2=O)ccc1NC(=O)c1occc1C` [12e], the “Fold selective versus mGlu4” value at hmGlu1 [1] is above 30.3 fold.

On to `Cc1ccoc1C(=O)Nc1cnc(N2C(=O)c3cccc(F)c3C2=O)nc1` [11h], for which, at hmGlu1 [1], the “mGlu1 versus mGlu4 PAM potency” value is “equipotent” and the “Fold selective versus mGlu4” value is on record as above 1.88 fold.

With `Cc1ccoc1C(=O)Nc1ccc(N2C(=O)c3ccccc3C2=O)cc1` [10a], the “Fold selective versus mGlu4” value on hmGlu1 [1] was above 208 fold.

For `Cc1ccoc1C(=O)Nc1ccc(N2C(=O)c3ccccc3C2=O)cc1Cl` [12b], the “mGlu1 agonism / PAM profile” value on hmGlu1 [1] was “did not show any observable agonistic effect”. Further, the “Fold selective versus mGlu4” value at hmGlu1 [1] is listed as above 344 fold. At mGlu5, the “activity at mGlu5” value is recorded as “no activity”. The results for the “predicted hepatic clearance CLHEP” value in data set [2] and in [3] were 9.25 mL/min/kg and 48.7 mL/min/kg, respectively. Moreover, in data set [4], the fraction unbound is below 0.01.

Consider `Cc1ccoc1C(=O)Nc1ccc(N2C(=O)c3cccc(F)c3C2=O)c(Cl)c1` [compound 4], for which the mGlu1 agonism result at hmGlu1 [5] (at concentrations above 10 µM, previously observed with parent compound) was “considerable agonism”. Moreover, the “selectivity versus mGlu4” value on hmGlu1 [5] is given as 35 fold. Also, the free fraction fu in [6] is 0.05; in data set [7], 0.03. In [8], the “Kp (CNS penetration)” value was 1.02. In addition, in data set [8] (rat PK), the CLp is 13.3 mL/min/kg.

`Cc1ccoc1C(=O)Nc1ccc(N2C(=O)c3ccccc3C2=O)nc1` [11a]: the “Fold selective versus mGlu4” value at hmGlu1 [1] was above 25.8 fold.
